In patent US4231928A, “Antibacterial agents” (priority 1979, dated 1980):
Where two headings read alike, the source gives them in different places.

Tests used:
Assay type in all cases: cell-based
[1] = tested on: Pseudomonas aeruginosa; experiment: Serial twofold agar dilution (Mueller-Hinton agar), P. aeruginosa; conditions: Pseudomonas aeruginosa, Mueller-Hinton agar, read-out: MIC
Experimental: (§1) The Minimum Inhibitory Concentrations (MIC) for sodium 6-[D-(-)-α-phenyl-α-(7-hydroxy-4-oxo-4H-pyrimido[1,2-b]pyridazin-3-ylcarboxamido)acetamido]penicillanate (BB-P598) and sulbenicillin were determined by the serial twofold agar dilution method using Steers' apparatus on Mueller-Hinton agar plates against 31 test organisms for the primary screening (Table 1) and also against 61 strains of Pseudomonas aeruginosa for the secondary evaluation (Table 2).
(§2) Minimum Inhibitory Concentrations (MIC) for sodium 6-[D-(-)-α-phenyl-α-(7-hydroxy-4-oxo-4H-pyrimido[1,2-b]pyridazin-3-ylcarboxamido)acetamido]pencillanate (BB-P598), sodium 6-[D-(-)-α-(4-hydroxyphenyl)-α-(7-hydroxy-4-oxo-4H-pyrimido[1,2-b]pyridazin-3-ylcarboxamido)acetamido]-penicillanate (BB-P642) and carbenicillin were determined by the serial twofold agar dilution method using Steers' apparatus on Mueller-Hinton agar plates against 31 tests organisms (Table 8) and also against 61 strains of Pseudomonas aeruginosa (Table 9). In terms of mean % relative activity compared with carbenicillin, compounds BB-B598 and BB-P642 were 856% and 1319% as active as carbenicillin against the 61 Pseudomonas strains of Table 9.

[2] = tested on: P. vulgaris; experiment: Serial twofold agar dilution (Mueller-Hinton agar), P. vulgaris
Experimental: as §1, §2

[3] = tested on: P. morganii; experiment: Serial twofold agar dilution (Mueller-Hinton agar), P. morganii
Experimental: as §1, §2

[4] = tested on: E. coli; experiment: Serial twofold agar dilution (Mueller-Hinton agar), E. coli; conditions: Escherichia coli
Experimental: as §1, §2

Question: What does the source list for `CC1(C)S[C@@H]2[C@H](NC(=O)[C@H](NC(=O)c3cnc4ccc(O)nn4c3=O)c3ccccc3)C(=O)N2[C@H]1C(=O)O` [BB-P598, sodium 6-[D-(-)-α-phenyl-α-(7-hydroxy-4-oxo-4H-pyrimido[1,2-b]pyridazin-3-ylcarboxamido)acetamido]penicillanate]?
Answer: MIC ([1]; Pa-28 C.P.H. 10527/72, Table 9): 3.1 µg/mL; MIC ([1]; Pa-28 CPH10527/72, Table 2): 6.3 µg/mL; MIC ([1]; Pa-29 D122, Table 2): 3.1 µg/mL; MIC ([1]; Pa-29 D122, Table 9): 3.1 µg/mL; MIC ([1]; Pa-30 A20600, Table 2): 3.1 µg/mL; MIC ([1]; Pa-30 A20600, Table 9): 1.6 µg/mL; MIC ([1]; Pa-31 A20594, Table 2): 0.8 µg/mL; MIC ([1]; Pa-31 A20594, Table 9): 1.6 µg/mL; MIC ([1]; Pa-32 A20595, Table 2): 3.1 µg/mL; MIC ([1]; Pa-32 A20595, Table 9): 3.1 µg/mL; MIC ([1]; Pa-33 A20598, Table 2): 12.5 µg/mL; MIC ([1]; Pa-33 A20598, Table 9): 1.6 µg/mL; MIC ([1]; Pa-34 A20603, Table 2): 3.1 µg/mL; MIC ([1]; Pa-34 A20603, Table 9): 1.6 µg/mL; MIC ([1]; Pa-35, Table 2): 12.5 µg/mL; MIC ([1]; Pa-35, Table 9): 6.3 µg/mL; MIC ([1]; Pa-36, Table 2): 0.4 µg/mL; MIC ([1]; Pa-36, Table 9): < 0.2 µg/mL; MIC ([1]; Pa-37 A20130, Table 2): 3.1 µg/mL; MIC ([1]; Pa-37 A20130, Table 9): 3.1 µg/mL; MIC ([1]; Pa-38 A20349, Table 2): 6.3 µg/mL; MIC ([1]; Pa-38 A20349, Table 9): 12.5 µg/mL; MIC ([1]; Pa-39 A20641, Table 2): 3.1 µg/mL; MIC ([1]; Pa-39 A20641, Table 9): 1.6 µg/mL; MIC ([1]; Pa-41 A21227, Table 2): 3.1 µg/mL; MIC ([1]; Pa-41 A21227, Table 9): 3.1 µg/mL; MIC ([1]; Pa-42 A21229, Table 2): 25 µg/mL; MIC ([1]; Pa-42 A21229, Table 9): 6.3 µg/mL; MIC ([1]; Pa-43 A21233, Table 2): 3.1 µg/mL; MIC ([1]; Pa-43 A21233, Table 9): 3.1 µg/mL; MIC ([1]; Pa-44 A21274, Table 2): 3.1 µg/mL; MIC ([1]; Pa-44 A21274, Table 9): 6.3 µg/mL; MIC ([1]; Pa-51 A9910, Table 2): 3.1 µg/mL; MIC ([1]; Pa-51 A9910, Table 9): 3.1 µg/mL; MIC ([1]; Pa-52 A9926, Table 2): 3.1 µg/mL; MIC ([1]; Pa-52 A9926, Table 9): 3.1 µg/mL; MIC ([1]; Pa-53 A20126, Table 2): 3.1 µg/mL; MIC ([1]; Pa-53 A20126, Table 9): 3.1 µg/mL; MIC ([1]; Pa-54 A20128, Table 2): 3.1 µg/mL; MIC ([1]; Pa-54 A20128, Table 9): 3.1 µg/mL; MIC ([1]; Pa-55 A20227, Table 2): 3.1 µg/mL; MIC ([1]; Pa-55 A20227, Table 9): 3.1 µg/mL; MIC ([1]; Pa-56 A20228, Table 2): 3.1 µg/mL; MIC ([1]; Pa-56 A20228, Table 9): 3.1 µg/mL; MIC ([1]; Pa-57 A20546, Table 2): 3.1 µg/mL; MIC ([1]; Pa-57 A20546, Table 9): 3.1 µg/mL; MIC ([1]; Pa-58 A20557, Table 2): 6.3 µg/mL; MIC ([1]; Pa-58 A20557, Table 9): 6.3 µg/mL; MIC ([1]; Pa-59 A20574, Table 2): 6.3 µg/mL; MIC ([1]; Pa-59 A20574, Table 9): 1.6 µg/mL; MIC ([1]; Pa-60 A20602, Table 2): 1.6 µg/mL; MIC ([1]; Pa-60 A20602, Table 9): 1.6 µg/mL; MIC ([1]; Pa-61 A20726, Table 2): 6.3 µg/mL; MIC ([1]; Pa-61 A20726, Table 9): 3.1 µg/mL; MIC ([1]; Pa-62 A21213, Table 2): 12.5 µg/mL; MIC ([1]; Pa-62 A21213, Table 9): > 100 µg/mL; MIC ([1]; Pa-64 A21336, Table 2): 3.1 µg/mL; MIC ([1]; Pa-64 A21336, Table 9): 1.6 µg/mL; MIC ([1]; Pa-65 A21428, Table 2): 1.6 µg/mL; MIC ([1]; Pa-65 A21428, Table 9): 1.6 µg/mL; MIC ([1]; Pa-66 A21434, Table 2): 3.1 µg/mL; MIC ([1]; Pa-66 A21434, Table 9): 3.1 µg/mL; MIC ([1]; Pa-67 A21509, Table 2): 6.3 µg/mL; MIC ([1]; Pa-67 A21509, Table 9): 6.3 µg/mL; MIC ([1]; Pa-68 A21510, Table 2): 6.3 µg/mL; MIC ([1]; Pa-68 A21510, Table 9): 3.1 µg/mL; MIC ([1]; Pa-69 A21587, Table 2): 12.5 µg/mL; MIC ([1]; Pa-69 A21587, Table 9): 6.3 µg/mL; MIC ([1]; Pa-70 K-PS102 (KR-102), Table 9): 3.1 µg/mL; MIC ([1]; Pa-70 K-Ps102 (CR-102), Table 2): 3.1 µg/mL; MIC ([2]; P. vulgaris A9539, Table 1): 25 µg/mL; MIC ([2]; Proteus vulgaris, P. vulgaris A9539, Table 8, read-out: MIC): 25 µg/mL; MIC ([3]; Morganella morganii, P. morganii A9553, Table 8, read-out: MIC): > 100 µg/mL; MIC ([3]; P. morganii A9553, Table 1): > 100 µg/mL; MIC ([4]; E. coli A9635, Table 8, read-out: MIC): 12.5 µg/mL; MIC ([4]; E. coli A9844, Table 8, read-out: MIC): 6.3 µg/mL; MIC ([4]; E. coli A20366, Table 8, read-out: MIC): > 100 µg/mL; MIC ([4]; E. coli A20520, Table 8, read-out: MIC): 3.1 µg/mL; MIC ([4]; E. coli A20664, Table 8, read-out: MIC): 0.8 µg/mL; MIC ([4]; E. coli A20732, Table 8, read-out: MIC): 50 µg/mL; MIC ([4]; E. coli A20898, Table 8, read-out: MIC): > 100 µg/mL; MIC ([4]; E. coli Juhl A9435, Table 1): 12.5 µg/mL; MIC ([4]; E. coli Juhl A9844, Table 1, read-out: MIC): 3.1 µg/mL; MIC ([4]; E. coli Juhl A15119, Table 1, read-out: MIC): 12.5 µg/mL; MIC ([4]; E. coli Juhl A15119, Table 8, read-out: MIC): 12.5 µg/mL; MIC ([4]; E. coli Juhl A20366, Table 1, read-out: MIC): > 100 µg/mL; MIC ([4]; E. coli Juhl A20520, Table 1, read-out: MIC): 1.6 µg/mL; MIC ([4]; E. coli Juhl A20664, Table 1, read-out: MIC): 0.8 µg/mL; MIC ([4]; E. coli Juhl A20732, Table 1, read-out: MIC): 100 µg/mL; MIC ([4]; E. coli Juhl A20898, Table 1, read-out: MIC): > 100 µg/mL; MIC ([4]; E. coli NIHJ, Table 1, read-out: MIC): 0.8 µg/mL; MIC ([4]; E. coli NIHJ, Table 8, read-out: MIC): 3.1 µg/mL
